Consider four compounds from PMC11110727, “Exploiting thiol-functionalized benzosiloxaboroles for achieving diverse substitution patterns – synthesis, characterization and biological evaluation of promising antibacterial agents” (RSC Medicinal Chemistry, 2024).

In brackets after ≈: the same amount, converted by molar mass.

Assay [1] concerns S. aureus ATCC 6538P. The experiment in a line: Antibacterial activity: MIC/MBC determination and disc-diffusion. The class given is cell-based, Staphylococcus aureus. As to conditions: S. aureus ATCC 6538P; for diameter of inhibition zone: disc-diffusion, — = zone not observed; for MBC / MIC: Staphylococcus aureus, ATCC6538P; for MBC: read-out: MBC (first MBC where Eagle effect); for MIC: read-out: MIC. In short, it runs like this: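 Reference agents: fluconazole for yeasts, linezolid for Gram-positive bacteria. Testing used disc diffusion and MIC determination under EUCAST and CLSI recommendations, with MBC/MFC per CLSI. Inocula came from two subcultures at 30 °C for 24–48 h.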
For orientation: Agar diffusion results depend on both activity and mobility in agar.

The subject of assay [2] is E. cloacae DSM 6234. The experiment in a line: Antibacterial activity: MIC/MBC, MIC with PAβN, disc-diffusion. It is filed as cell-based, Enterobacter cloacae. The note with it: Enterobacter cloacae, DSM6234; E. cloacae DSM 6234; read-out: MIC. In a few lines:
(§1)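 Strains were subcultured twice on TSA at 30 °C. They were then tested by disc diffusion (EUCAST/CLSI), by CLSI broth-microdilution MIC in Mueller–Hinton II broth and by CLSI MBC, with compounds in DMSO.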

Assay [3] deals with A. baumannii ATCC 19606. The assay is described as above. It is filed as cell-based, Acinetobacter baumannii. The note with it: Acinetobacter baumannii, ATCC19606; A. baumannii ATCC 19606; read-out: MIC. In short, it runs like this:
as §1

Assay [4] concerns P. aeruginosa ATCC 27853. Described as above. It is filed as cell-based. The note with it: Pseudomonas aeruginosa, ATCC27853; P. aeruginosa ATCC 27853; read-out: MIC. In a few lines: as §1
The subject of assay [5] is S. maltophilia ATCC 12714. The description is as above. It is filed as cell-based, Stenotrophomonas maltophilia. The note with it: Stenotrophomonas maltophilia, ATCC12714; S. maltophilia ATCC 12714; read-out: MIC. In short, it runs like this: as §1
Assay [6] has as its system B. cepacia ATCC 25416. The experiment in a line: Antibacterial activity: MIC/MBC, disc-diffusion. The class given is cell-based, Burkholderia cepacia. As to conditions: Burkholderia cepacia, ATCC25416; B. cepacia ATCC 25416; read-out: MIC. In short, it runs like this:
as §1

The test system of assay [7] is C. guilliermondii IBA 155. The experiment in a line: Antifungal activity: MIC/MFC, disc-diffusion. The class given is cell-based. The note with it: Meyerozyma guilliermondii, IBA155; read-out: MIC. In short, it runs like this: (§2)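 Strains were subcultured twice for 24–48 h at 30 °C, on TSA for bacteria and Sabouraud dextrose agar for yeasts. Disc-diffusion and MIC followed EUCAST/CLSI recommendations, and MBC/MFC followed CLSI. Compounds were dissolved in DMSO, with fluconazole or linezolid as references.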

The test system of assay [8] is C. parapsilosis ATCC 22019. Nature of the assay: Antifungal activity: MIC/MFC, disc-diffusion. The class given is cell-based. As to conditions: for MIC: Lodderomyces parapsilosis, ATCC22019, read-out: MIC. In short, it runs like this:
as §2

The test system of assay [9] is C. tropicalis ATCC 750. The experiment in a line: Antifungal activity: MIC/MFC, disc-diffusion. It is filed as cell-based. The note with it: Candida tropicalis, ATCC750; read-out: MIC. In a few lines: as §2
For assay [10], the system named is C. tropicalis IBA 171. The experiment in a line: Antifungal activity: MIC/MFC, disc-diffusion. The note with it: Candida tropicalis, IBA171; read-out: MIC. It is filed as cell-based. In a few lines: as §2

Regarding `C[Si]1(C)OB(O)c2cc(F)c(SCCC(=O)Nc3ncccn3)c(F)c21` [Compound 9, 3-((5,7-Difluoro-3-hydroxy-1,1-dimethyl-1,3-dihydrobenzo[c][1,2,5]oxasilaborol-6-yl)thio)-N-(pyrimidin-2-yl)propanamide], the “diameter of inhibition zone” value in [1] is reported as 17 mm. Besides, the MBC (usually the smallest concentration meeting the test's criterion for killing) in [1] turned out to be 400 µg/mL (≈ 1010 µM). For the same compound, the MIC (as a rule, the smallest concentration in the dilution series that meets the test's criterion for growth inhibition) is 25 µg/mL (≈ 63.2 µM) in [1]; more than 400 µg/mL in [2]; more than 400 µg/mL in assay [3]; more than 400 µg/mL in assay [4]; more than 400 µg/mL in assay [5]; more than 400 µg/mL in [6]. In addition, the MIC in assay [7], in assay [8], in [9] and in assay [10] was more than 400 µg/mL each time.

Take `C[Si]1(C)OB(O)c2cc(F)c(S(=O)(=O)Cl)c(F)c21` [Compound 26, 5,7-Difluoro-3-hydroxy-1,1-dimethyl-1,3-dihydrobenzo[c][1,2,5]oxasilaborole-6-sulfonyl chloride]: in assay [1], the “diameter of inhibition zone” value is 14 mm. Moreover, the MBC in [1] is 400 µg/mL. Also, the minimal inhibitory concentration (MIC) was 200 µg/mL in [1]; more than 400 µg/mL in assay [2]; more than 400 µg/mL in assay [3]; more than 400 µg/mL in assay [4]; more than 400 µg/mL in assay [5]; more than 400 µg/mL in assay [6]. The MIC in assay [7], in [8], in [9] and in assay [10] was more than 400 µg/mL in each case.

Take `C[Si]1(C)OB(O)c2cc(F)c(SCCC(=O)OCCCCCC[n+]3ccccc3)c(F)c21` [Compound 18, 1-(6-((3-((5,7-difluoro-3-hydroxy-1,1-dimethyl-1,3-dihydrobenzo[c][1,2,5]oxasilaborol-6-yl)thio)propanoyl)oxy)hexyl)pyridin-1-ium trifluoromethanesulfonate]: the “diameter of inhibition zone” value in assay [1] is given as 19 mm; in assay [8] (C. parapsilosis ATCC 22019, (-) = zone not observed, paper discs 9 mm) it was 14 mm. The MBC in assay [1] worked out at 100 µg/mL. Further, the minimum inhibitory concentration (MIC) is 25 µg/mL in assay [1]; more than 400 µg/mL in assay [2]; more than 400 µg/mL in [3]; more than 400 µg/mL in assay [4]; more than 400 µg/mL in [5]; more than 400 µg/mL in assay [6]. Moreover, the MIC is more than 400 µg/mL in assay [7], 400 µg/mL in assay [8], 400 µg/mL in assay [9] and 400 µg/mL in assay [10].

For the compound `C[Si]1(C)OB(O)c2cc(F)c(SCCC(=O)ON3C(=O)CCC3=O)c(F)c21` [Compound 5, 2,5-Dioxopyrrolidin-1-yl 3-((5,7-difluoro-3-hydroxy-1,1-dimethyl-1,3-dihydrobenzo-[c][1,2,5]oxasilaborol-6-yl)thio)propanoate], the “diameter of inhibition zone” value in [1] was found to be 15 mm. Also, the MIC in assay [1] is 400 µg/mL (≈ 963 µM); in assay [2], more than 400 µg/mL; in assay [3], more than 400 µg/mL; in assay [4], more than 400 µg/mL; in [5], more than 400 µg/mL; in [6] it was more than 400 µg/mL. Besides, the MIC in assay [7], in assay [8], in assay [9] and in [10] was more than 400 µg/mL throughout.
